“Also recorded” adds a separate entry of the source.

The test system of this assay is MC3T3-E1 cells. In words: qRT-PCR gene expression in mineralizing cells treated with growth factor. It is filed as cell-based. How it is done:
Cell Culture: MC3T3-E1 cells were grown and mineralized essentially as described in Example 1.
RNA Isolation: RNA was isolated using the RNeasy™ Mini kit (Qiagen, Valencia, Calif.) or TriReagent™ (Sigma-Aldrich, St. Louis, Mo.) according to the manufacturer's protocol.
Reverse Transcription: 1.5 μg of RNA was added to 30 μl reverse transcriptase (RT) reaction buffer containing 5 mM MgCl2, 10 mM Tris-HCl (pH 8.3), 50 mM KCl, 1 mM dNTPs, 2.5 μM oligo d(T) primer, 2.5 U/μl of MuLV RT, and 1 U/μl of RNase inhibitor. The RT reaction was incubated at room temperature for 10 min, 42° C. for 30 min, inactivated at 99° C. for 5 min, and cooled at 5° C. for 5 min.
Real-time Quantitative RT-PCR Reaction (qRT-PCR): 2 μl of cDNA from the RT reaction was added to 20 μl real-time quantitative polymerase chain reaction (qRT-PCR) mixture containing 10 μl of 2×SYBR® Green PCR Master Mix (Applied Biosystems, Foster City, Calif.) and 12 pmol oligonucleotide primers. PCR was carried out in a Bio-Rad MY iQ® Single-Color Real-Time PCR Detection System (Bio-Rad, Hercules, Calif.) at 50° C. for 2 min, 95° C. for 10 min to activate the Taq polymerase, followed by 50 amplification cycles, consisting of denaturation at 95° C. for 1 min 40 sec, annealing at 63° C. for 1 min 10 sec, and elongation at 72° C. for 1 min 40 sec. Fluorescence was measured and used for quantitative purposes. At the end of the amplification period, melting curve analysis was performed to confirm the specificity of the amplicon. RNA samples were normalized to a cyclophilin (CPHI) internal standard. Relative quantification of gene expression was calculated by using the 2^−(Ct gene T−Ct CPHI T)−(Ct gene 0 hr−Ct CPHI 0 hr) equation, where “Ct gene T” represents the calculated threshold cycle (Ct) of a time point of each sample other than 0 hr, or each treatment other than control. Relative gene abundance is calculated using 2^(Ct gene T−Ct CPHI T), resulting numbers were then multiplied by 10,000 for better graphical presentation. Primer sequences were previously described (Hughes-Fulford and Gilbertson, FASEB J. 13:S121-127, 1999; Hughes-Fulford et al., Gravit. Space Biol. Bull. 11:51-60, 1998; Tjandrawinata and Hughes-Fulford, Adv. Exp. Med. Biol. 407:163-170, 1997; Hughes-Fulford, Adv. Exp. Med. Biol. 400A:269-278, 1997; Hughes-Fulford and Lewis, Exp. Cell Res. 224:103-109, 1996). All data derived using qRT-PCR was from multiple experiments with triplicate independent biological samples.

Where [1] appears, read: 24 hours, FGF-2 5 ng/ml or BMP-2 100 ng/ml, corrected to cyclophilin.

Consider fibroblast growth factor-2 [FGF-2], for which, under setting [1], the “Relative abundance of gene expression: ALP” value stood at 13.39, the “Relative abundance of gene expression: BMP-2” value was “**0.06”, the “Relative abundance of gene expression: Collagen Type I” value is reported as “**678.21” and the “Relative abundance of gene expression: Fibronectin” value was “*28432.19”. Under setting [1], the “Relative abundance of gene expression: IGF-1” value is given as “**50.65”, the “Relative abundance of gene expression: MMP3” value is “**4.04”, the “Relative abundance of gene expression: Noggin” value is given as “*1.61” and the “Relative abundance of gene expression: OC” value is reported as “**1.38”. Besides, under setting [1], the “Relative abundance of gene expression: RUNX2” value is given as “**674.95”, the “Relative abundance of gene expression: TGFβ” value is “**245.40” and the “Relative abundance of gene expression: VEGFA” value is given as “**5132.66”. Moreover, under “over 24 hours”, the “expression of genes associated with mineralization (col1a1, fn, bmp-2, oc, runx2, noggin), in words” value is listed as “significantly decreased; also recorded: significantly suppressed” and the “expression of igf-1, in words” value is “significantly decreased”. Also, the “expression of egr-1, fgf-2, cox-2, tgfβ, mmp3, vegfA and vegfr1, in words” value (over a 24 hour period) is “dramatically induced”.

The record behind these values is US20100055078A1, “METHODS OF MAKING A TRANSPLANTABLE BONE REPAIR SYSTEM USING MULTIPOTENT STEM CELLS” (The Government of the U.S.A, as represented by the …, priority 2008, published 2010).
